Laboratory results taken from US9108923B2, “Compounds, compositions, and methods for cancer therapy” (The Broad Institute, Inc., priority 2012, dated 2015).
Like-named read-outs stand apart in the source and are kept apart here. Each block holds one molecule with its values, some of them ahead of it.

Legend:
[1] = stability at room temperature (remark with characterisation data); format: physicochemical
BJ vs. BJ-ELR = test: Assessment of Cancer/Normal Selective Toxicity (crystal violet); format: cell-based, human; conditions: crystal violet staining, 48 h
H1703 = test: ATP Assay (CellTiter-Glo), cellular ATP levels as surrogate for cell viability; format: cell-based, human
Method: (§1) ATP Assay. […] At that time, media was removed and replaced with a solution of CellTiter-Glo reagent (Promega) in PBS. After ten minutes, luminescence was read using an EnVision multilabel plate reader (Perkin-Elmer) and signal intensity was calculated relative to in-plate DMSO control wells.
(§2) We next sought to determine the performance of the synthetic analogs relative to PL in cells. […] As a second assay, effects of compound treatments on ATP levels, a surrogate for cell viability, were measured after 48 hours.
(§3) Assays were performed in 384-well plates on two human cancer cell lines, H1703 (lung) and HeLa (cervix).

HeLa = test: as above; format: cell-based, human
Method: as §1, §2, §3

HeLa cells [2] = test: Immunofluorescence Detection of Glutathionylated Proteins; conditions: for elevation of protein glutathionylation (in words): HeLa cells, monoclonal antibody recognizing glutathione
HeLa cells [3] = test: Glutathione Assay (GSH/GSSG-Glo), total cellular glutathione; format: cell-based, human; conditions: 6 h treatment
[4] = system: EJ bladder carcinoma line; test: as above; conditions: EJ cells, 3 h treatment
[5] = system: H1703 (lung) and HeLa (cervix); test: ROS Assay (CM-H2DCF-DA, automated microscopy); format: cell-based, human; conditions: 90 minutes after compound treatment
[6] = system: H1703 (lung) and HeLa (cervix); test: ATP assay / cellular toxicity, covering both cell lines; format: cell-based, human; conditions: two cell lines tested, ATP levels after 48 h
[7] = Homo sapiens, NCI-H1703; Table 1; cellular ATP levels, 48 h; read-out: EC50 H1703
[8] = Table 2; cellular ATP levels, 48 h; read-out: EC50 H1703
[9] = Homo sapiens, HeLa; Table 1; cellular ATP levels, 48 h; read-out: EC50 HeLa
[10] = Table 2; cellular ATP levels, 48 h; read-out: EC50 HeLa
[11] = Homo sapiens, NCI-H1703; Table 2; cellular ATP levels, 48 h; read-out: EC50 H1703
[12] = Homo sapiens, HeLa; Table 2; cellular ATP levels, 48 h; read-out: EC50 HeLa

stability at room temperature [1]: decomposes slowly at room temperature
SMILES: COc1cc(/C=C/C(=O)N2CCC=C(C#CCN(C)C)C2=O)cc(OC)c1OC [(E)-3-(3-(dimethylamino)prop-1-ynyl)-1-(3-(3,4,5-trimethoxyphenyl)prop-2-enoyl)-5,6-dihydropyridin-2(1H)-one]

EC50 (H1703; [7]): 0.7 µM
EC50 (HeLa; [9]): 1.3 µM
SMILES: COc1cc(/C=C/C(=O)N2CCC=C(C#CC3CC3)C2=O)cc(OC)c1OC [compound 5, (E)-3-(cyclopropylethynyl)-1-(3-(3,4,5-trimethoxyphenyl)prop-2-enoyl)-5,6-dihydropyridin-2(1H)-one]
elevation of protein glutathionylation (in words) (HeLa cells [2]): large and rapid elevations in protein glutathionylation

EC50 (H1703; [8]): 14 µM
EC50 (HeLa; [10]): > 20 µM
SMILES: COc1cc2c(c(OC)c1OC)CCC(C(=O)N1CCC=CC1=O)=C2 [compound 29, 1-(5,6,7-trimethoxy-3,4-dihydronaphthalene-2-carbonyl)-5,6-dihydropyridin-2(1H)-one]
elevation of protein glutathionylation (in words) (HeLa cells [2]): minimal elevation
viability / cellular toxicity (in words) [6]: diminished cell death relative to PL
decrease in total cellular glutathione [4]: ca. 60%
elevation of ROS levels (in words) [5]: robust enhancement of ROS levels

EC50 (H1703; [11]): 0.3 µM
EC50 (HeLa; [12]): 0.78 µM
SMILES: O=C1C=CCCN1C(=O)/C=C/c1ccc(/C=C/C(=O)N2CCC=CC2=O)cc1 [compound 78]

The remaining lines, values behind:

SMILES: S=C=NCCc1ccccc1 [Phenethylisothiocyanate, reference compound]
selective toxicity toward transformed BJ-ELR over BJ fibroblasts (in words) (BJ vs. BJ-ELR): showed selectivity in this assay

SMILES: COc1cc(/C=C/C(=O)N2CCC=CC2=O)cc(OC)c1OC [compound 1, piperlongumine, reference compound]
EC50 (H1703; Homo sapiens, NCI-H1703, 48 h, read-out: EC50 H1703): 2.8 µM
EC50 (HeLa; Homo sapiens, HeLa, 48 h, read-out: EC50 HeLa): 7.1 µM
elevation of protein glutathionylation (in words) (HeLa cells [2]): large and rapid elevations in protein glutathionylation
reversal of protein glutathionylation by 0.1 M dithiothreitol (HeLa cells [2]; treatment with 0.1 M dithiothreitol): could not be reversed
decrease in total glutathione (in words) (HeLa cells [3]): most effective
decrease in total cellular glutathione [4]: ca. 60%

SMILES: COc1cc(/C=C/C(=O)N2CCCCC2=O)cc(OC)c1OC [compound 2, 1-[(2E)-3-(3,4,5-trimethoxyphenyl)prop-2-enoyl]piperidin-2-one]
EC50 (H1703; [7]): > 20 µM
EC50 (H1703; [8]): > 20 µM
EC50 (HeLa; [9]): > 20 µM
EC50 (HeLa; [10]): > 20 µM
elevation of ROS levels (in words) [5]: neither elevated ROS levels

SMILES: COC(=O)CSC1CCN(C(=O)/C=C/c2cc(OC)c(OC)c(OC)c2)C(=O)C1 (stereo not drawn) [compound 25]
EC50 (H1703; read-out: EC50 H1703; Table 2; cellular ATP levels, 48 h): 7.9 µM
EC50 (HeLa; read-out: EC50 HeLa; Table 2; cellular ATP levels, 48 h): > 20 µM
viability / cellular toxicity (in words) [6]: substantially less potent than PL at inducing cancer cell death
elevation of ROS levels (in words) [5]: substantially less potent than PL

SMILES: O=C1C=CCCN1S(=O)(=O)/C=C/c1ccccc1 [compound 52, 1-{[(E)-2-phenylvinyl]sulfonyl}-5,6-dihydropyridin-2(1H)-one]
selective toxicity toward transformed BJ-ELR over BJ fibroblasts (in words) (BJ vs. BJ-ELR): selectivity comparable to PL
EC50 (H1703; [8]): 2.7 µM
EC50 (HeLa; [10]): 4.1 µM

SMILES: O=C1C=CCCN1C(=O)CCC(=O)N1CCC=CC1=O [compound 77]
EC50 (H1703; [11]): 5.5 µM
EC50 (HeLa; [12]): 15 µM
